Assay results reported in patent US10414811B2, “Protease-resistant lipidated GLP-1 analogs” (MEDIMMUNE LIMITED, priority 2015, dated 2019).
Read-outs that look alike come from different tables or passages of the source. Numbered stars: 1 amine (or outer) side, 2 acyl side, 3 side chain; on linkers, the order of the positions; unused ones are H or OH. Square brackets hold non-standard residues; d marks the D form. Side chains are listed from the residue outwards. Peptide text beside a SMILES is read from it. * marks the point of attachment. γGlu = O=C(O)[C@H](CCC(=O)[*:2])N[*:1]; αMeF = C[C@](N)(Cc1ccccc1)C(=O)O; αMeK = C[C@](N)(CCCCN)C(=O)O; Lauroyl = CCCCCCCCCCCC(=O)*; αMeS = C[C@](N)(CO)C(=O)O; AEEA = NCCOCCOCC(=O)O; Aib = CC(C)(N)C(=O)O

Experiments:
Neprilysin = target: T1, Neprilysin (Homo sapiens, UniProt P08473); assay: Proteolytic resistance to neprilysin (% remaining peptide, RP-HPLC AUC); format: in vitro ADME; settings: 37° C., pH 8.3
T1 construct: purchased R&D Systems 1182-ZNC-010
T1 sequence (P08473 whole entry): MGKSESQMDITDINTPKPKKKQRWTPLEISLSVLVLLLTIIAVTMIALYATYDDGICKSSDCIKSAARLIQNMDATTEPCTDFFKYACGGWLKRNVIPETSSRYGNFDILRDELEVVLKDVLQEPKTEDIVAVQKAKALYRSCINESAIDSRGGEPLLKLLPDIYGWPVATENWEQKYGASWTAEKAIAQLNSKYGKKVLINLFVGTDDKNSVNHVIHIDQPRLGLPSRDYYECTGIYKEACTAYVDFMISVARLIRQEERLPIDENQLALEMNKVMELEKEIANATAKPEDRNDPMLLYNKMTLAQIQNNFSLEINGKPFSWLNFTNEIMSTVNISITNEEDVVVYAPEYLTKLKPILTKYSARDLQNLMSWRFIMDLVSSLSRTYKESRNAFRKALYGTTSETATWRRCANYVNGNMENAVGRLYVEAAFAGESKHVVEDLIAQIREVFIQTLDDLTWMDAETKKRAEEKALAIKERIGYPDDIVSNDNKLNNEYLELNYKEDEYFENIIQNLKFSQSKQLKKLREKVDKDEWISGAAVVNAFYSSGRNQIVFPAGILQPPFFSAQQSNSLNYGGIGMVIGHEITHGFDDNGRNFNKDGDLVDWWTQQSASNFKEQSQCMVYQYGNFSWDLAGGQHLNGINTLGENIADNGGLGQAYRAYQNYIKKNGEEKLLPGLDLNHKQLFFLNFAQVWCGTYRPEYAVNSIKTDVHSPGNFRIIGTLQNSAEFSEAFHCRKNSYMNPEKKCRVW
Method: Ratio enzyme (units):peptide (μmoles)˜1:33. […] Ratio enzyme (units):peptide (μmoles)˜1:2.5.
15 μL aliquots (˜15 μg initial peptide) of the peptide-enzyme mixture were periodically withdrawn (t=0, 30 mins, 1 hr, 2 hr, 4 hr, 8 hr, 24 hr) and quenched immediately by addition to an equal volume (15 μL) of 5% TFA (v/v) in 1:1 water/acetonitrile to arrest proteolytic activity. 20 μL aliquots (˜10 μg initial peptide) were analyzed by LC/MS and/or analytical RP-HPLC as follows: LC/MS method: Agilent Polaris C8-A column (4.6×100 mm, 3 micron) eluted with a linear binary gradient of 10-90% MeCN (0.1% TFA v/v) in water (0.1% TFA v/v) over 30 mins at 1.5 mL min-1 at ambient temperature with detection by both UV absorption at 210 nm and ionization using a Waters 3100 mass detector (ESI+ mode). Peptide fragments deriving from enzymatic hydrolysis were identified by molecular weight, allowing location of the site of cleavage. Analytical RP-HPLC method: Agilent Polaris C8-A column (4.6×100 mm, 3 micron) eluted with a linear binary gradient of 10-90% MeCN (0.1% TFA v/v) in water (0.1% TFA v/v) over either 10 or 15 mins at 1.5 mL min^−1 at 40° C. with detection by UV absorption at 210 nm. Manual integration (AUC) allowed estimation of remaining intact peptide over the time course of the experiment.
25 μL aliquots (˜6 μg initial peptide) were analyzed by LC/MS and/or analytical RP-HPLC as follows: LC/MS method: Agilent Polaris C8-A column (4.6×100 mm, 3 micron) eluted with a linear binary gradient of 10-90% MeCN (0.1% TFA v/v) in water (0.1% TFA v/v) over 30 mins at 1.5 mL min^−1 at ambient temperature with detection by both UV absorption at 210 nm and ionization using a Waters 3100 mass detector (ESP mode). Peptide fragments deriving from enzymatic hydrolysis were identified by molecular weight, allowing location of the site of cleavage. Analytical RP-HPLC method: Agilent Polaris C8-A column (4.6×100 mm, 3 micron) eluted with a linear binary gradient of 10-90% MeCN (0.1% TFA v/v) in water (0.1% TFA v/v) over either 10 or 15 mins at 1.5 mL min^−1 at 40° C. with detection by UV absorption at 210 nm. Manual integration (AUC) allowed estimation of remaining intact peptide over the time course of the experiment.

[1] = target: T2, human glucagon receptor (GCGR) (Homo sapiens, UniProt P47871); assay: cAMP assay, human GCGR cells; format: cell-based; settings: cAMP assay
T2 construct: expressed in transfected cells
T2 sequence (P47871 26-477): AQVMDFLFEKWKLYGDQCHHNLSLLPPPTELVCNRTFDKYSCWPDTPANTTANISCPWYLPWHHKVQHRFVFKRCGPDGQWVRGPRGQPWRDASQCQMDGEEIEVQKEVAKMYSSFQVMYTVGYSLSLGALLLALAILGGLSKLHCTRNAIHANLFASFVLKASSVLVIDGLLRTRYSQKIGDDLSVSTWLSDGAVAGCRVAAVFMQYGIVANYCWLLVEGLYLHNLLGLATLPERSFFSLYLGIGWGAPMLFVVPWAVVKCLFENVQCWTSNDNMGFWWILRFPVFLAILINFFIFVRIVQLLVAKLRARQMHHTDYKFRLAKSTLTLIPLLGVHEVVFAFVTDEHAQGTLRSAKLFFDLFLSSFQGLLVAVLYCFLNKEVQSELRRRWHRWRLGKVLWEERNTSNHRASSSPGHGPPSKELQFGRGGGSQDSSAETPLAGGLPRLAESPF
Method in brief: (§1)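 Peptide-stimulated cAMP measured by two-step HTRF after a 30 min room-temperature incubation with receptor-expressing cells (hGLP-1R, hGIPR at 1×10^5 cells/ml; hGCGR at 2×10^5 cells/ml). Duplicate dilutions; EC50 from 4-parameter logistic fit of % Delta F.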

[2] = target: T3, human glucose-dependent insulinotropic peptide receptor (GIPR) (Homo sapiens, UniProt P48546); assay: cAMP assay, human GIPR cells; format: cell-based; settings: cAMP assay
T3 construct: expressed in transfected cells
T3 sequence (P48546 22-466): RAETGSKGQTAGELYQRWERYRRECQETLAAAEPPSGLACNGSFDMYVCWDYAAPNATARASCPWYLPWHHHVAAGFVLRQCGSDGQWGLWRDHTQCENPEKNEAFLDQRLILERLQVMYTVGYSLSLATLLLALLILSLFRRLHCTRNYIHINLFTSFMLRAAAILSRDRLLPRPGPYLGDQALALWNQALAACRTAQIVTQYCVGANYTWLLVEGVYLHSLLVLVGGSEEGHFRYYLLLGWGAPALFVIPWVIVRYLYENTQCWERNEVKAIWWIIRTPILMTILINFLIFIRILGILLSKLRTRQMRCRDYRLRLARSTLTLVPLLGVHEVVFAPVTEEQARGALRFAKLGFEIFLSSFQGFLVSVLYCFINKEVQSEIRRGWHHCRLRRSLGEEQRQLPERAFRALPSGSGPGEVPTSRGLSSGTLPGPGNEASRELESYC
Method in brief: as §1

GLP-1R (INS1e assay) = target: T4, GLP-1R (INS1e assay) (Rattus norvegicus, UniProt P32301); assay: INS1e assay, cAMP activity at GLP-1R; format: cell-based
T4 construct: endogenous in cells; host or cells: INS-1E cells
T4 sequence (P32301 22-463): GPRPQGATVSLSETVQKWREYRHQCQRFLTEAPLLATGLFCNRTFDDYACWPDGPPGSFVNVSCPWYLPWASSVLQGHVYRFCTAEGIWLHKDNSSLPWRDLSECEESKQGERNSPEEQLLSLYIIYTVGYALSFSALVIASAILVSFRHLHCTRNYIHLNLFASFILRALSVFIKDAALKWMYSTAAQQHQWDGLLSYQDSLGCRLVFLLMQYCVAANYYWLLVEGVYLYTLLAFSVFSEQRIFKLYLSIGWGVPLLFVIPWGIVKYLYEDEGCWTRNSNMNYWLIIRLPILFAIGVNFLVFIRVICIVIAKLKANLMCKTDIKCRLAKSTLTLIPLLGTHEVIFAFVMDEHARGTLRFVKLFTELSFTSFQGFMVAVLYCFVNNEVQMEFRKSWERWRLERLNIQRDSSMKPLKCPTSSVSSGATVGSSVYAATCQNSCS
Method in brief: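 It pairs cAMP-d2 acceptor with anti-cAMP cryptate donor, both prepared 1/20 in conjugate/lysis buffer, applied as a two-step protocol.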

pepsin = target: T5, pepsin (Sus scrofa, UniProt P00791); assay: Proteolytic resistance to pepsin (% remaining intact peptide, RP-HPLC AUC); format: in vitro ADME; settings: pig, porcine pepsin, 37° C., pH 2.0, read-out: Percentage remaining intact peptide (AUC by RP-HPLC) upon incubation with pepsin
T5 construct: purchased Sigma P7012
T5 sequence (P00791 60-385): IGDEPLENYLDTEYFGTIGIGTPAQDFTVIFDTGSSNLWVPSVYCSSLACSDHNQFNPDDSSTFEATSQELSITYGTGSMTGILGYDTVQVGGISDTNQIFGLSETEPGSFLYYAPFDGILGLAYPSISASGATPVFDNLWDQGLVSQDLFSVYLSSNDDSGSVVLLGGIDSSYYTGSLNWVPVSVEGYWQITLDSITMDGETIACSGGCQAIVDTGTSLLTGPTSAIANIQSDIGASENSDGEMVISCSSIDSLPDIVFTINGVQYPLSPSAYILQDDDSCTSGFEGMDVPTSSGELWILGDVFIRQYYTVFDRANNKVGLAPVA
Method: Lyophilized porcine […] pepsin (Sigma: P7012) was reconstituted to afford a solution of 200 μg/mL (˜500 units/mL) in assay buffer (0.1 M HCl, pH 2.0) to give the enzyme stock solution. […] Ratio enzyme (units):peptide (μmoles)˜1:6. […] Ratio enzyme (units):peptide (μmoles)˜2:1.
Lyophilized porcine […] pepsin (Sigma: P7012) was reconstituted to 200 μg/mL (˜500 units/mL) in assay buffer (1.0 M HCl, pH 2.0) to give the enzyme stock solution.

trypsin = target: T6, trypsin (Sus scrofa, UniProt P00761); assay: Proteolytic resistance to trypsin (% remaining intact peptide, RP-HPLC AUC); format: in vitro ADME; settings: pig, porcine pancreatic trypsin, 37° C., pH 7.8, read-out: Percentage remaining intact peptide (AUC by RP-HPLC) upon incubation with trypsin
T6 construct: purchased Sigma T7409
T6 sequence (P00761 9-231): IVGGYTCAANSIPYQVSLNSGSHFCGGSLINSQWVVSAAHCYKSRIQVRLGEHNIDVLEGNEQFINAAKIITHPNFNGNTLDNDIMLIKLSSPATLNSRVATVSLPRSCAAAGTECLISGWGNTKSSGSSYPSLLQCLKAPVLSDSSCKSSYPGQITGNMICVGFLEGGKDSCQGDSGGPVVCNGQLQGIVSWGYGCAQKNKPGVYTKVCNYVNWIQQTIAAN
Excerpt: Ratio enzyme (units):peptide (μmoles)˜1:11. […] Ratio enzyme (units):peptide (μmoles)˜1.2:1.

[3] = target: T7, human GLP-1 receptor (GLP-1R) (Homo sapiens, UniProt P43220); assay: cAMP assay, human GLP-1R cells; format: cell-based; settings: bis-lipidated peptides
T7 construct: expressed in transfected cells
T7 sequence (P43220 24-463): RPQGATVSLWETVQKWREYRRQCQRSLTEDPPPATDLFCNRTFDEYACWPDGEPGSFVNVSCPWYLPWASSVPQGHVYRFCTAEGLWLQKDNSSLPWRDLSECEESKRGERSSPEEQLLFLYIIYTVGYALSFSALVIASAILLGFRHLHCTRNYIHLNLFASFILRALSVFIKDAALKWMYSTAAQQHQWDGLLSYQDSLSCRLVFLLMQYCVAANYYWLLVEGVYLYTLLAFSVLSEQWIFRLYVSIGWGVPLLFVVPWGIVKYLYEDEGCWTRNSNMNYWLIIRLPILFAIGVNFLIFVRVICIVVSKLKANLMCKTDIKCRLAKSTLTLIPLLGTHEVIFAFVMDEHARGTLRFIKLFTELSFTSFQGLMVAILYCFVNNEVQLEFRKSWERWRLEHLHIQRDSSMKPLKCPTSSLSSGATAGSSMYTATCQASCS
Method in brief: as §1

SMILES: CC[C@H](C)[C@H](NC(=O)[C@](C)(Cc1ccccc1)NC(=O)[C@H](CCC(=O)O)NC(=O)[C@](C)(CCCCN)NC(=O)[C@H](C)NC(=O)[C@H](C)NC(=O)[C@H](CCC(=O)O)NC(=O)CNC(=O)[C@H](CCC(=O)O)NC(=O)[C@H](CC(C)C)NC(=O)[C@](C)(Cc1ccccc1)NC(=O)[C@H](CO)NC(=O)[C@](C)(CO)NC(=O)[C@@H](NC(=O)[C@H](CC(=O)O)NC(=O)[C@H](CO)NC(=O)[C@@H](NC(=O)[C@](C)(Cc1ccccc1)NC(=O)[C@H](CO)NC(=O)CNC(=O)[C@H](CCC(=O)O)NC(=O)C(C)(C)NC(=O)[C@@H](N)Cc1c[nH]cn1)[C@@H](C)O)C(C)C)C(=O)N[C@@H](C)C(=O)N[C@@](C)(Cc1ccccc1)C(=O)N[C@H](C(=O)N[C@H](C(=O)N[C@@](C)(CCCCN)C(=O)NCC(=O)NCC(N)=O)C(C)C)C(C)C [compound 17]
- Percentage remaining peptide (AUC at specified time-point by RP-HPLC) upon incubation with neprilysin, t = 0 (Neprilysin): 100%
- EC50 ([1]; first determination (n1), read-out: Primary assay EC50 Gluc-R (n1)): ≥ 31 nM
- EC50 ([1]; second determination (n2), read-out: Primary assay EC50 Gluc-R (n2)): ≥ 31 nM
- EC50 ([2]; first determination (n1), read-out: Primary assay EC50 GIP-R (n1)): ≥ 31 nM
- EC50 ([2]; second determination (n2), read-out: Primary assay EC50 GIP-R (n2)): ≥ 31 nM
- EC50 (GLP-1R (INS1e assay); mono-lipidated peptides, mean of n1 and n2, read-out: INS1e assay EC50 Mean pM GLP-1R): 6 pM
- EC50 (GLP-1R (INS1e assay); mono-lipidated peptides, replicate n1, read-out: INS1e assay EC50 GLP-1R n1): 5.1 pM
- EC50 (GLP-1R (INS1e assay); mono-lipidated peptides, replicate n2, read-out: INS1e assay EC50 GLP-1R n2): 7.87 pM

SMILES: CCCCCCCCCCCC(=O)N[C@@H](CCC(=O)NCCOCCOCC(=O)NCCOCCOCC(=O)NCCCC[C@H](NC(=O)[C@H](C)NC(=O)[C@@H](NC(=O)[C@H](Cc1ccccc1)NC(=O)[C@H](CCC(=O)O)NC(=O)[C@](C)(CCCCN)NC(=O)[C@H](C)NC(=O)[C@H](C)NC(=O)[C@H](CCC(=O)O)NC(=O)CNC(=O)[C@H](CCC(=O)O)NC(=O)[C@H](CCCCNC(=O)COCCOCCNC(=O)COCCOCCNC(=O)CC[C@H](NC(=O)CCCCCCCCCCC)C(=O)O)NC(=O)[C@H](Cc1ccc(O)cc1)NC(=O)[C@H](CO)NC(=O)[C@](C)(CO)NC(=O)[C@@H](NC(=O)[C@H](CC(=O)O)NC(=O)[C@H](CO)NC(=O)[C@@H](NC(=O)[C@](C)(Cc1ccccc1)NC(=O)[C@H](CO)NC(=O)CNC(=O)[C@H](CCC(=O)O)NC(=O)C(C)(C)NC(=O)[C@@H](N)Cc1c[nH]cn1)[C@@H](C)O)C(C)C)[C@@H](C)CC)C(=O)N[C@H](C(=O)N[C@H](C(=O)N[C@@H](CCC(=O)O)C(=O)NCC(=O)NCC(N)=O)C(C)C)C(C)C)C(=O)O [compound 269] (H-H[Aib]EGS[αMeF]TSDV[αMeS]SYK([AEEA-AEEA-γGlu-Lauroyl])EGEAA[αMeK]EFIAK([AEEA-AEEA-γGlu-Lauroyl])VVEGG-NH2)
- remaining at 0.5 h (Neprilysin; recombinant neprilysin, t = 30 min): 95.7%
- remaining at 1 h (Neprilysin; recombinant neprilysin, t = 1 hr): 92.8%
- remaining at 4 h (Neprilysin; recombinant neprilysin, t = 4 hr): 95.3%
- remaining at 8 h (Neprilysin; recombinant neprilysin, t = 8 hr): 89.7%
- remaining at 24 h (Neprilysin; recombinant neprilysin, t = 24 hr, read-out: Percentage remaining peptide (AUC at specified time-point by RP-HPLC) upon incubation with neprilysin, t = 24 hr): 89.3%
- Percentage remaining peptide (AUC at specified time-point by RP-HPLC) upon incubation with neprilysin, t = 0 (Neprilysin): 100%
- remaining at 0.5 h (pepsin; t = 30 min): 74.9%
- remaining at 1 h (pepsin; t = 1 hr): 55.8%
- remaining at 2 h (pepsin; t = 2 hr): 38.6%
- remaining at 4 h (pepsin; t = 4 hr): 22.4%
- remaining at 8 h (pepsin; t = 8 hr): 13.4%
- remaining at 24 h (pepsin; t = 24 hr): 0%
- remaining at 0.5 h (trypsin; t = 30 min): 96.8%
- remaining at 1 h (trypsin; t = 1 hr): 95.2%
- remaining at 2 h (trypsin; t = 2 hr): 89.9%
- remaining at 4 h (trypsin; t = 4 hr): 85.2%
- remaining at 8 h (trypsin; t = 8 hr): 82.9%
- remaining at 24 h (trypsin; t = 24 hr): 74.7%
- EC50 ([3]; mean of n1 and n2, read-out: Primary assay EC50 Mean pM GLP-1R): 4.6 pM
- EC50 ([3]; replicate n1, read-out: Primary assay EC50 GLP-1R n1): 4.01 pM
- EC50 ([3]; replicate n2, read-out: Primary assay EC50 GLP-1R n2): 5.24 pM
- EC50 (GLP-1R (INS1e assay); bis-lipidated peptides, mean of n1 and n2, read-out: INS1e assay EC50 Mean pM GLP-1R): 212 pM
- EC50 (GLP-1R (INS1e assay); bis-lipidated peptides, replicate n1, read-out: INS1e assay EC50 GLP-1R n1): 243 pM
- EC50 (GLP-1R (INS1e assay); bis-lipidated peptides, replicate n2, read-out: INS1e assay EC50 GLP-1R n2): 181 pM
